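Each compound was tested at five concentrations against cells in 96-well plates for 48 hours. The concentration for 50% growth inhibition is given as GI50.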 Activity calls are given as the source filed them. No stated cut-off is given here; in the data, active = GI50 up to about 1.1 µM and inactive = higher.
Columns and labels:
Assay in all cases: growth of human tumour cells (NCI), 48 h
BT-549 = system: BT-549
CAKI-1 = system: CAKI-1
COLO 205 = system: COLO 205
HL-60 = system: HL-60
Hs-578T = system: Hs-578T
IGROV-1 = system: IGROV-1
M14 = system: M14
MCF7 = system: MCF7
MDA-MB-435 = system: MDA-MB-435
NCI-H460 = system: NCI-H460
OVCAR-5 = system: OVCAR-5
PC-3 = system: PC-3
RPMI-8226 = system: RPMI-8226
SK-OV-3 = system: SK-OV-3
SN12C = system: SN12C
SNB-19 = system: SNB-19
SNB-75 = system: SNB-75
SR = system: SR
T47D = system: T47D
UACC-257 = system: UACC-257

Row | SMILES | GI50 (BT-549) | GI50 (CAKI-1) | GI50 (COLO 205) | GI50 (HL-60) | GI50 (Hs-578T) | GI50 (IGROV-1) | GI50 (M14) | GI50 (MCF7) | GI50 (MDA-MB-435) | GI50 (NCI-H460) | GI50 (OVCAR-5) | GI50 (PC-3) | GI50 (RPMI-8226) | GI50 (SK-OV-3) | GI50 (SN12C) | GI50 (SNB-19) | GI50 (SNB-75) | GI50 (SR) | GI50 (T47D) | GI50 (UACC-257)
1 | N=c1oc2ccc3ccccc3c2cc1-c1nc(O)c2ccccc2n1 | 15.1 µM (inactive) | 43.5 µM (inactive) | > 100 µM (inactive) | 8.73 µM (inactive) | 20.5 µM (inactive) | 16 µM (inactive) | 25.9 µM (inactive) | 14.4 µM (inactive) | 58.3 µM (inactive) | 32.8 µM (inactive) | 96.6 µM (inactive) | 13.4 µM (inactive) | 42.6 µM (inactive) | 19.9 µM (inactive) | 74 µM (inactive) | 27.6 µM (inactive) | 2.44 µM (inactive) | 26.5 µM (inactive) | 30.7 µM (inactive) | 42.5 µM (inactive)
2 | c1ccc2c(c1)CCN1CCc3ccccc3C1C2 (stereo not given) | 80.7 µM (inactive) | 47.1 µM (inactive) | 38 µM (inactive) | 76.9 µM (inactive) | 68.5 µM (inactive) | 48 µM (inactive) | 23.1 µM (inactive) | > 100 µM (inactive) | 33 µM (inactive) | 44.6 µM (inactive) | 38.4 µM (inactive) | 43.7 µM (inactive) | 43 µM (inactive) | 64 µM (inactive) | 43.4 µM (inactive) | 82.8 µM (inactive) | 36.4 µM (inactive) | 47.8 µM (inactive) | > 100 µM (inactive) | 62.4 µM (inactive)
3 | O=C1c2ccccc2C(=O)c2c1nc1ccccc1c2-c1cncc(-c2c3c(nc4ccccc24)C(=O)c2ccccc2C3=O)c1 | 11.4 µM (inactive) | 9.84 µM (inactive) | 2.85 µM (inactive) | 1.75 µM (inactive) | 3.69 µM (inactive) | 0.0596 µM (active) | 3.18 µM (inactive) | 5.19 µM (inactive) | 1.83 µM (inactive) | 2.43 µM (inactive) | 50.2 µM (inactive) | 2.15 µM (inactive) | 0.361 µM (active) | > 77.1 µM (inactive) | 3.98 µM (inactive) | 23.8 µM (inactive) | 5.69 µM (inactive) | 1.53 µM (inactive) | 2.33 µM (inactive) | 8.63 µM (inactive)
4 | COc1cc(OC)cc(C(=O)NC2=C(Cl)C(=O)c3ccccc3C2=O)c1 | 2.27 µM (inactive) | 5.4 µM (inactive) | 2.52 µM (inactive) | 0.189 µM (active) | 3.3 µM (inactive) | 2.18 µM (inactive) | 1.07 µM (active) | 2.84 µM (inactive) | 1.95 µM (inactive) | 2.34 µM (inactive) | 4.92 µM (inactive) | 1.23 µM (inactive) | 0.706 µM (active) | 2.49 µM (inactive) | 3.15 µM (inactive) | 5.5 µM (inactive) | 2.67 µM (inactive) | 1.06 µM (active) | 1.46 µM (inactive) | 1.99 µM (inactive)
5 | O=P(O)(O)CN1CCNCCN(CP(=O)(O)O)CC1 | > 100 µM (inactive) | > 90.6 µM (inactive) | 3.18 µM (inactive) | 4.21 µM (inactive) | > 100 µM (inactive) | 33.3 µM (inactive) | 37.9 µM (inactive) | 8.79 µM (inactive) | 36.5 µM (inactive) | 11.3 µM (inactive) | > 42.3 µM (inactive) | 52.4 µM (inactive) | 20.4 µM (inactive) | 23.7 µM (inactive) | > 100 µM (inactive) | > 100 µM (inactive) | > 54.5 µM (inactive) | 9.44 µM (inactive) | > 68.4 µM (inactive) | > 55.3 µM (inactive)
6 | CCCCCCCCCCCCc1ccsc1-c1ccc(-c2ccc(-c3sc(-c4cc(CCCCCCCCCCCC)c(-c5ccc(-c6ccc(-c7sccc7CCCCCCCCCCCC)s6)s5)s4)cc3CCCCCCCCCCCC)s2)s1 | > 100 µM (inactive) | > 100 µM (inactive) | > 100 µM (inactive) | 19.3 µM (inactive) | > 100 µM (inactive) | > 100 µM (inactive) | > 100 µM (inactive) | > 100 µM (inactive) | > 100 µM (inactive) | > 100 µM (inactive) | > 100 µM (inactive) | > 100 µM (inactive) | > 100 µM (inactive) | > 100 µM (inactive) | > 100 µM (inactive) | > 100 µM (inactive) | > 100 µM (inactive) | 22.8 µM (inactive) | > 100 µM (inactive) | > 100 µM (inactive)
7 | C=CC(C1=CC(=O)C(OC)=CC1=O)c1ccccc1 (stereo not given) [4-METHOXYDALBERGIONE] | 15.5 µM (inactive) | 17.2 µM (inactive) | 18.9 µM (inactive) | 2.38 µM (inactive) | 17.8 µM (inactive) | 16.4 µM (inactive) | 17.9 µM (inactive) | 7.48 µM (inactive) | 13.8 µM (inactive) | 17.1 µM (inactive) | 20.3 µM (inactive) | 9.53 µM (inactive) | 9.64 µM (inactive) | 17.3 µM (inactive) | 14.3 µM (inactive) | 15.8 µM (inactive) | 18.1 µM (inactive) | 3.86 µM (inactive) | 2.65 µM (inactive) | 19.2 µM (inactive)
8 | COc1ccc(C(C)NNC(=O)c2ccncc2)cc1OC (stereo not given) | > 100 µM (inactive) | > 100 µM (inactive) | > 100 µM (inactive) | > 100 µM (inactive) | > 100 µM (inactive) | > 100 µM (inactive) | > 100 µM (inactive) | > 100 µM (inactive) | > 100 µM (inactive) | > 100 µM (inactive) | > 100 µM (inactive) | > 100 µM (inactive) | > 100 µM (inactive) | 26.4 µM (inactive) | > 100 µM (inactive) | > 100 µM (inactive) | > 100 µM (inactive) | > 100 µM (inactive) | > 100 µM (inactive) | > 100 µM (inactive)
9 | CC(=O)Nc1ccc2c3c(cc(O)c2c1)N(C(=O)CCCCCCC(=O)N1CC(CCl)c2c1cc(O)c1cc(NC(C)=O)ccc21)CC3CCl (stereo not given) | < 0.01 µM (active) | < 0.0152 µM (active) | 0.0105 µM (active) | < 0.01 µM (active) | 0.0306 µM (active) | 0.015 µM (active) | < 0.01 µM (active) | < 0.01 µM (active) | 0.0127 µM (active) | < 0.01 µM (active) | 0.0325 µM (active) | < 0.0119 µM (active) | 0.059 µM (active) | 0.017 µM (active) | < 0.01 µM (active) | < 0.01 µM (active) | < 0.01 µM (active) | < 0.01 µM (active) | < 0.01 µM (active) | 0.0104 µM (active)
10 | c1ccc2c(c1)nc1n2C2CCC(C2)N1 (stereo not given) | > 10 µM (inactive) | > 10 µM (inactive) | > 10 µM (inactive) | > 10 µM (inactive) | > 10 µM (inactive) | > 10 µM (inactive) | > 10 µM (inactive) | > 10 µM (inactive) | > 10 µM (inactive) | > 10 µM (inactive) | > 10 µM (inactive) | > 10 µM (inactive) | > 10 µM (inactive) | > 10 µM (inactive) | > 10 µM (inactive) | > 10 µM (inactive) | 1.87 µM (inactive) | > 10 µM (inactive) | > 10 µM (inactive) | > 10 µM (inactive)
11 | COC(=O)C1=C(C(=O)OC)N(c2ccc(OC)cc2[N+](=O)[O-])C(c2ccc(C)cc2)=CC1c1ccc(OC)cc1OC (stereo not given) | 11.3 µM (inactive) | 28 µM (inactive) | 13.2 µM (inactive) | 3.8 µM (inactive) | 31.7 µM (inactive) | 13.3 µM (inactive) | 17.2 µM (inactive) | 4.05 µM (inactive) | 5.13 µM (inactive) | 24.5 µM (inactive) | 34.5 µM (inactive) | 47.6 µM (inactive) | 2.07 µM (inactive) | 25.8 µM (inactive) | 13.6 µM (inactive) | 34.7 µM (inactive) | 18.7 µM (inactive) | 2.28 µM (inactive) | 11.1 µM (inactive) | 23.1 µM (inactive)

Source: ChEMBL document CHEMBL1201862, “PubChem BioAssay data set” (2004)
